This note sets out measurements from PubChem BioAssay (NCI).

Test systems include 786-0 renal; A498 renal; HCT-116 colon; HL-60(TB) leukemia; LOX IMVI melanoma; MDA-MB-435; OVCAR-5 ovarian; PC-3 prostate; SW-620 colon; U251 CNS.
What all share (test): NCI anticancer screen, dose series, 48 h

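Assay format: 96-well plates, 48-hour exposure. TGI: concentration producing complete growth inhibition.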

In the case of `O=C(N/N=C(/COc1ccc([N+](=O)[O-])cc1)N=Cc1ccncc1)c1ccncc1`, the TGI in the assay with 786-0 renal, with A498 renal, with HCT-116 colon, with HL-60(TB) leukemia, in the assay on LOX IMVI melanoma and in the assay on MDA-MB-435 was over 100 µM in each case. The TGI with OVCAR-5 ovarian, with PC-3 prostate, in the assay on SW-620 colon and with U251 CNS was over 100 µM in each case.

For `O=[N+]([O-])c1ccc(C=NCC2CCCN3CCCCC23)cc1` (stereo not given), the TGI is 52.1 µM in the assay on 786-0 renal; over 100 µM in the assay on A498 renal; over 100 µM in the assay with HCT-116 colon; over 100 µM in the assay on HL-60(TB) leukemia; 30.4 µM in the assay with LOX IMVI melanoma; over 100 µM with MDA-MB-435. For the same compound, the TGI with OVCAR-5 ovarian, with PC-3 prostate, in the assay with SW-620 colon and with U251 CNS was over 100 µM each time.

As for `O=C(Cc1ccccc1)Nn1c(-c2ccccc2)nc2ccccc2c1=O`, the TGI with 786-0 renal, in the assay with A498 renal, with HCT-116 colon, in the assay with HL-60(TB) leukemia, in the assay with LOX IMVI melanoma and in the assay on MDA-MB-435 was over 100 µM in each case. For the same compound, the TGI in the assay on OVCAR-5 ovarian, with PC-3 prostate, in the assay on SW-620 colon and in the assay on U251 CNS was over 100 µM throughout.

For `C=C1C(=O)O[C@@H]2C[C@]3(C)CC[C@]4(C)[C@H](CC[C@@H]5[C@@]6(C)CCC(=O)C(C)(C)[C@@H]6CC[C@]54C)[C@H]3[C@H]12`, the TGI is 30.2 µM in the assay with 786-0 renal; 35.3 µM in the assay on A498 renal; 31.3 µM in the assay on HCT-116 colon; 3.72 µM in the assay on HL-60(TB) leukemia; 29.6 µM in the assay on LOX IMVI melanoma; 25.4 µM with MDA-MB-435. Also, the TGI with OVCAR-5 ovarian is 32.8 µM; in the assay on PC-3 prostate, 35.4 µM; in the assay with SW-620 colon, 55.4 µM; in the assay with U251 CNS, 38.4 µM.

Regarding `CCOP(=O)(OCC)C(C#N)Cc1ccco1` (stereo not given), the TGI with 786-0 renal, in the assay on A498 renal, in the assay on HCT-116 colon, in the assay with HL-60(TB) leukemia, with LOX IMVI melanoma and in the assay on MDA-MB-435 was over 10 µM each time. The TGI with OVCAR-5 ovarian, in the assay with PC-3 prostate, in the assay on SW-620 colon and with U251 CNS was over 10 µM in each case.

As for `O=C(N/N=C1/C(=O)c2c3ccccc3cc3cccc1c23)c1ccccc1`, the TGI with 786-0 renal was 43.1 µM; with A498 renal it was over 57.4 µM; with HCT-116 colon, over 84.8 µM; with HL-60(TB) leukemia, over 100 µM; in the assay with LOX IMVI melanoma, over 100 µM; in the assay with MDA-MB-435, over 86.7 µM. The TGI is over 100 µM in the assay on OVCAR-5 ovarian, over 84.1 µM in the assay with PC-3 prostate, over 100 µM with SW-620 colon and 98.3 µM with U251 CNS.

For `CC(=O)OCC1OC(Oc2cc(C)c(O)cc2C/C=C(\C)CC/C=C(\C)CC(=O)CC(C)C)C(O)C(OC(C)=O)C1OC(C)=O` (stereo not given), the TGI was over 50 µM with 786-0 renal; 27.6 µM in the assay with A498 renal; over 50 µM in the assay on HCT-116 colon; 23.4 µM in the assay with HL-60(TB) leukemia; 32.7 µM in the assay on LOX IMVI melanoma; 48.4 µM in the assay on MDA-MB-435. For the same compound, the TGI in the assay on OVCAR-5 ovarian is over 50 µM; with PC-3 prostate, over 50 µM; with SW-620 colon it was 24.6 µM; in the assay with U251 CNS, 41.9 µM.

As to `CC(=O)N=C1N(/C=C2\C(=O)Oc3ccccc3C2=O)C(=O)/C(=C/c2ccc(NC(C)=O)cc2)N1C`, the TGI in the assay with 786-0 renal, with A498 renal, in the assay on HCT-116 colon, in the assay with HL-60(TB) leukemia, in the assay with LOX IMVI melanoma and with MDA-MB-435 was over 100 µM in each case. In addition, the TGI in the assay with OVCAR-5 ovarian, in the assay with PC-3 prostate, with SW-620 colon and in the assay with U251 CNS was over 100 µM in each case.

Regarding `CC[C@H]1C=CCC[C@@]2(C[C@@H]3CC[C@H]4[C@@H](C(=O)OCCCCCCCCCCCCCCCC(=O)N(CCCN)C[C@@H](O)CCN)[C@@]5(CCC[C@@H](C)O5)NC(=[N+]34)N2)O1`, the TGI amounted to 3.3 µM in the assay with 786-0 renal; 6.62 µM in the assay with A498 renal; 2.96 µM with HCT-116 colon; 4.24 µM with HL-60(TB) leukemia; 3.35 µM with LOX IMVI melanoma; 2.88 µM in the assay on MDA-MB-435. Besides, the TGI in the assay on OVCAR-5 ovarian worked out at 3.22 µM; with PC-3 prostate, 3.1 µM; in the assay on SW-620 colon, 6.99 µM; with U251 CNS, 3.05 µM.

Take `CC1(C)C2CC(=O)C1(C)C(OCc1ccccc1)C2` (stereo not given): the TGI with 786-0 renal is over 100 µM; with A498 renal, over 100 µM; with HCT-116 colon, 66.1 µM; with HL-60(TB) leukemia it was 62.3 µM; in the assay on LOX IMVI melanoma, 68.4 µM; in the assay with MDA-MB-435 it was over 100 µM. Further, the TGI with OVCAR-5 ovarian was over 100 µM; in the assay with PC-3 prostate, over 100 µM; in the assay on SW-620 colon, 87.3 µM; in the assay with U251 CNS it was over 100 µM.
